Assay results published in the Kinase Knowledgebase extract (Sharma et al. 2016).

The compounds below were run against MAPK14 (human) (UniProt Q16539) (assay: Enzyme Assay).
Sequence of MAPK14 (human) (Q16539 whole entry, looked up): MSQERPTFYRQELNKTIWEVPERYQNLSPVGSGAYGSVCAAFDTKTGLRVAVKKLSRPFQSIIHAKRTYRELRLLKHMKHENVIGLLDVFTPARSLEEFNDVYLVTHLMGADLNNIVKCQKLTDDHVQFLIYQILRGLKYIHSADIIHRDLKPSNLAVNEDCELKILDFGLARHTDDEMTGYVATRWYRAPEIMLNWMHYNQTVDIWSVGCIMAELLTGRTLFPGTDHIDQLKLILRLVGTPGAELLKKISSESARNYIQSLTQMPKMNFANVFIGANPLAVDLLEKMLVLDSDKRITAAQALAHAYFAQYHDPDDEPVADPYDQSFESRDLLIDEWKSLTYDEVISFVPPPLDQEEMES

SMILES	IC50 [nM]
Cc1ccc(-n2nc(C(C)(C)C)cc2NC(=O)N[C@H]2CC[C@@H](Oc3ccc4nnc(N5[C@H](C)CCC[C@@H]5C)n4c3)c3ccccc32)cc1	< 10
Cc1ccc(-n2nc(C(C)(C)C)cc2NC(=O)N[C@H]2CC[C@@H](Oc3ccc4nnc(N5CCC[C@@H](CO)C5)n4c3)c3ccccc32)cc1	< 10
CN1CCC[C@H]1c1nnc2ccc(O[C@@H]3CC[C@H](NC(=O)Nc4cc(C(C)(C)C)nn4-c4ccc(O)cc4)c4ccccc43)cn12	< 10
CN(C)CCOc1cccc(-n2nc(C(C)(C)C)cc2NC(=O)N[C@H]2CC[C@@H](Oc3ccc4nnc(N5CCCCC56CC6)n4c3)c3ccccc32)c1	< 10
Cc1ccc(-n2nc(C(C)(C)C)cc2NC(=O)N[C@H]2CC[C@@H](Oc3ccc4nnc(N5CCC(C)(O)CC5)n4c3)c3ccccc32)cc1	< 10
CC(C)(C)c1cc(NC(=O)N[C@H]2CC[C@@H](Oc3ccc4nnc(N5CCC(CO)CC5)n4c3)c3ccccc32)n(-c2ccc(CO)cc2)n1	< 10
Cc1ccc(-n2nc(C(C)(C)C)cc2NC(=O)N[C@H]2CC[C@@H](Oc3ccc4nnc(CC5CCN(C)CC5)n4c3)c3ccccc32)cc1	< 10
COc1c(NC(=O)N[C@H]2CC[C@@H](Oc3ccc4nnc([C@@H]5CCCN5C)n4c3)c3ccccc32)cc(C(C)(C)C)cc1NS(C)(=O)=O	< 10
CN1CCN(Cc2ccc(-n3nc(C(C)(C)C)cc3NC(=O)N[C@H]3CC[C@@H](Oc4ccc5nnc(N6CCCCC6)n5c4)c4ccccc43)cc2)CC1	< 10
C[C@H]1COCCN1c1nnc2ccc(O[C@@H]3CC[C@H](NC(=O)Nc4cc(C(C)(C)C)nn4-c4cccc(OCCN(C)C)c4)c4ccccc43)cn12	< 10
C[C@H]1CCCCN1c1nnc2ccc(O[C@@H]3CC[C@H](NC(=O)Nc4cc(C(C)(C)C)nn4-c4ccc(CN5CCN(C)CC5)cc4)c4ccccc43)cn12	< 10
Cc1ccc(-n2nc(C(C)(C)C)cc2NC(=O)N[C@H]2CC[C@@H](Oc3ccc4nnc([C@@H]5CC(C)(C)CN5C)n4c3)c3ccccc32)cc1	< 10
C[C@H]1CCCCN1c1nnc2ccc(O[C@@H]3CC[C@H](NC(=O)Nc4cc(C(C)(C)C)nn4-c4cccc(CN(C)C)c4)c4ccccc43)cn12	< 10
C[C@@H]1CCC[C@H](C)N1c1nnc2ccc(O[C@@H]3CC[C@H](NC(=O)Nc4cc(C(C)(C)C)nn4-c4cccc(CN5CCCC5)c4)c4ccccc43)cn12	< 10
C[C@H]1COCCN1c1nnc2ccc(O[C@@H]3CC[C@H](NC(=O)Nc4cc(C(C)(C)C)nn4CCN4CCOCC4)c4ccccc43)cn12	< 10
C[C@H]1CCCCN1c1nnc2ccc(O[C@@H]3CC[C@H](NC(=O)Nc4cc(C(C)(C)C)nn4-c4cccc(OCCN5C6CCC5COC6)c4)c4ccccc43)cn12	< 10
Cc1ccc(-n2nc(C(C)(C)C)cc2NC(=O)N[C@H]2CC[C@@H](Oc3ccc4nnc([C@H]5CCCN(C)C5)n4c3)c3ccccc32)cc1	< 10
C[C@H]1CCCCN1c1nnc2ccc(O[C@@H]3CC[C@H](NC(=O)Nc4cc(C(C)(C)C)nn4-c4cccc(CCN(C)C)c4)c4ccccc43)cn12	< 10
CN1CCC[C@H]1c1nnc2ccc(O[C@@H]3CC[C@H](NC(=O)Nc4cc(C(C)(C)C)nn4-c4cccc(OCCO)c4)c4ccccc43)cn12	< 10
C[C@@H]1CCC[C@H](C)N1c1nnc2ccc(O[C@@H]3CC[C@H](NC(=O)Nc4cc(C(C)(C)C)nn4-c4cccc(CN5CCOCC5)c4)c4ccccc43)cn12	< 10
C[C@H]1CCCCN1c1nnc2ccc(O[C@@H]3CC[C@H](NC(=O)Nc4cc(C(C)(C)C)nn4-c4cccc(OCCN5CCOCC5)c4)c4ccccc43)cn12	< 10
Cc1ccc(-n2nc(C(C)(C)C)cc2NC(=O)N[C@H]2CC[C@@H](Oc3ccc4nnc(C(C)(C)N(C)C)n4c3)c3ccccc32)cc1	< 10
Cc1ccc(-n2nc(C(C)(C)C)cc2NC(=O)N[C@H]2CC[C@@H](Oc3ccc4nnc([C@@H](C)N5CCOCC5)n4c3)c3ccccc32)cc1.Cc1ccc(-n2nc(C(C)(C)C)cc2NC(=O)N[C@H]2CC[C@@H](Oc3ccc4nnc([C@H](C)N5CCOCC5)n4c3)c3ccccc32)cc1	< 10
